According to publication PMC9321339, “Characterization in Inhibitory Effectiveness of Carbamazepine in Voltage-Gated Na^+ and Erg-Mediated K^+ Currents in a Mouse Neural Crest-Derived (Neuro-2a) Cell Line” (International Journal of Molecular Sciences, 2022):
Where two headings read alike, the source gives them in different places.

Test system: T1, voltage-gated Na+ (NaV) channels / INa in Neuro-2a cells (mainly NaV1.2, 1.3, 1.4 and 1.7)
T1 construct: gene Scn2a
Format: cell-based
Settings: step -100 to -10 mV, 30 ms, Ca2+-free Tyrode with 10 mM TEA, 0.5 mM CdCl2, 20-25 °C

For `NC(=O)N1c2ccccc2C=Cc2ccccc21` [Carbamazepine, 5H-dibenzo[b,f]azepine-5-carboxamide], the IC50 (late (sustained) INa(L)) was 18 µM and the IC50 (peak (transient) INa(T)) was 56 µM.
